Minimal effective dose and Emax data for five compounds are collected here from patent publication US11530237B2, “Compositions and methods for treating CNS disorders” (Sage Therapeutics, Inc., priority 2014, dated 2022).

One assay deals with PTZ-treated mice. Nature of the assay: Acute PTZ method (pentylenetetrazol-induced seizure assay). Particulars: Mus musculus, lowest dose with significant effect on latency to tonic seizures, PO, read-out: Anticonvulsive Effect Dose (minimal effective anticonvulsant dose). It is filed as in vivo. Here is the method:
The anticonvulsant effect of test compounds were assessed in a pentylenetetazol-induced seizure assay in mice similar to methods described in Giardina & Gasior (Curr Protoc Pharmacol. 2009). Male CD-1 mice were housed in groups of five under controlled conditions (temperature of 22±2° C. and 12:12 light-dark cycle, lights on at 8:00 am) and water and food were available ad libitum. The mice were housed for 1 week prior to behavioral testing, at which time they weighed 25-35 g. Pentylenetetrazol (PTZ, Sigma) was dissolved in sterile 0.9% saline at a concentration of 12 mg/mL concentration for subcutaneous administration. Test compounds were formulated and administered via oral gavage or intraperitoneal injection at a predetermined time-point (typically 30 or 60 minutes) prior to PTZ injection. All solutions were made fresh and given in a volume corresponding to 10 ml/kg body weight.
Mice were acclimated to the test room for at least 30 min before compound administration. Mice were randomized into at least four test groups (vehicle and at least three doses of the test compound) with 10 mice per group. […] Following the drug pretreatment time the mice were injected s.c. with PTZ (120 mg/kg). Immediately following the PTZ injection, mice were individually placed into observation chambers (25×15×15 cm) and a three-channel timer was started. Each mouse was continuously observed for 30 min and the following behaviors were recorded by observers blinded to the treatments: 1) latency to clonic convulsions that persist for 3 sec and followed by an absence of righting reflex 2) latency to tonic convulsions, characterized by the rigid extension of all four limbs that exceeded a 90 degree angle with the body 3) latency to death 4) number of clonic and tonic convulsions. Data are presented as mean±S.E.M and one-way ‘nalysis of vari’nce with Dunnett's or Bonferroni's post-hoc test was used to detect significant differences in latency and number between the vehicle and dose group, p values<0.05 were regarded as statistically significant.

A further assay concerns the target α4β3δ GABAA receptors (Homo sapiens (Human), UniProt P28472+P48169). Nature of the assay: Patch clamp electrophysiology (manual patch) of recombinant α4β3δ GABAA receptors in CHO cells. It is filed as cell-based. As to conditions: 10 μM test article, GABA EC20 = 2 μM, read-out: GABA (α4β3δ) Manual patch in CHO, % efficacy at 10 μM. Here is the method: Cellular electrophysiology is used to measure the pharmacological properties of our GABAA receptor modulators in heterologous cell systems. Each compound is tested for its ability to affect GABA mediated currents at a suhmaximal agonist dose (GABA EC20=2 μM). LTK cells are stably transfected with the α1β2γ2 subunits of the GABA receptor and CHO cells are transiently transfected with the α4β3δ subunits via the Lipofecatamine method. Cells were passaged at a confluence of about 50-80% and then seeded onto 35 mm sterile culture dishes containing 2 ml culture complete medium without antibiotics or antimycotics. Confluent clusters of cells are electrically coupled (Pritchett et al., Science, 1988, 242, 1306-1308). Because responses in distant cells are not adequately voltage clamped and because of uncertainties about the extent of coupling (Verdoom et al., Neuron 1990, 4, 919-928), cells were cultivated at a density that enables the recording of single cells (without visible connections to other cells).
Whole cell currents were measured with HEKA EPC-10 amplifiers using PatchMaster software or by using the high throughput QPatch platform (Sophion). Bath solution for all experiments contained (in mM): NaCl 137 mM, KCl 4 mM, CaCl2 1.8 mM, MgCl2 1 mM, HEPES 10 mM, D-Glucose 10 mM, pH (NaOH) 7.4. In some cases 0.005% cremophor was also added. Intracellular (pipette) solution contained: KCl 130 mM, MgCl2 1 mM, Mg-ATP 5 mM, HEPES 10 mM, EGTA 5 mM, pH 7.2. During experiments, cells and solutions were maintained at room temperature (19° C.-30° C.). For manual patch clamp recordings, cell culture dishes were placed on the dish holder of the microscope and continuously perfused (1 ml/min) with bath solution. After formation of a Gigaohm seal between the patch electrodes and the cell (-ipette resistance range: 2.5 MΩ-6.0 MΩ; seal resistance range:>1 GΩ) the cell membrane across the pipette tip was ruptured to assure electrical access to the cell interior (whole-cell patch-configuration). For experiments using the QPatch system, cells were transferred as suspension to the QPatch system in the bath solution and automated whole cell recordings were performed.
Cells were voltage clamped at a holding potential of −80 mV. For the analysis of test articles, GABA receptors were stimulated by 2 μM GABA after sequential pre-incubation of increasing concentrations of the test article. Pre-incubation duration was 30 s and the duration of the GABA stimulus was 2s. Test articles were dissolved in DMSO to form stock solutions (10 mM). Test articles were diluted to 0.01, 0.1, 1, and 10 μM in bath solution. All concentrations of test articles were tested on each cell. The relative percentage potentiation was defined as the peak amplitude in response to GABA EC20 in the presence of the test article divided by the peak amplitude in response to GABA EC20 alone, multiplied by 100. For Table 2. GABAA receptors α1β2γ2 and α4β3δ% efficacy: “A” 10-100, “B”>100-500, “C”>500; D indicates the data is not available or has not been determined.

The next assay has as its target α1β2γ2 GABAA receptors (Homo sapiens (Human), UniProt P14867+P47870). Nature of the assay: Patch clamp electrophysiology (QPatch) of recombinant α1β2γ2 GABAA receptors in LTK cells. As to conditions: 10 μM test article, GABA EC20 = 2 μM, read-out: GABA (α1β2γ2) Qpatch in Ltk, % efficacy at 10 μM. It is filed as cell-based. The method in brief: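 Whole-cell currents were recorded at −80 mV and room temperature: α1β2γ2 in stably transfected LTK cells on QPatch, and α4β3δ in transiently transfected CHO cells by manual patch. Each cell was pre-incubated 30 s with 0.01, 0.1, 1 and 10 μM compound in sequence, then given a 2 s pulse of 2 μM GABA (EC20). Efficacy is peak current relative to GABA alone ×100.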

For `COC[C@@]1(O)CC[C@@]2(C)[C@@H](CC[C@@H]3[C@@H]2CC[C@]2(C)[C@@H](C(=O)Cn4nnc(C)n4)CC[C@@H]32)C1` [Compound 194], the minimal effective dose in the assay with PTZ-treated mice was at most 1 mg/kg. Further, the Emax at 10 µM at α4β3δ GABAA receptors was over 500%.
Turning to `COC[C@@]1(O)CC[C@@]2(C)[C@@H](CC[C@@H]3[C@@H]2CC[C@]2(C)[C@@H](C(=O)Cn4nnnc4C)CC[C@@H]32)C1` [Compound 193], the minimal effective dose in the assay on PTZ-treated mice was in the range of 1 to 5 mg/kg. In addition, the Emax at 10 µM on α1β2γ2 GABAA receptors and at α4β3δ GABAA receptors was over 500% each time.
With `C[C@@]1(O)CC[C@@]2(C)[C@H](CC[C@@H]3[C@@H]2CC[C@]2(C)[C@@H](C(=O)Cn4nccn4)CC[C@@H]32)C1` [Compound 207], the minimal effective dose with PTZ-treated mice was at least 5 mg/kg. For the same compound, the Emax at 10 µM on α4β3δ GABAA receptors was over 500%.
As to `C[C@@]1(O)CC[C@@]2(C)[C@H](CC[C@@H]3[C@@H]2CC[C@]2(C)[C@@H](C(=O)Cn4ncnn4)CC[C@@H]32)C1` [Compound 54], in the assay on PTZ-treated mice, the minimal effective dose was in the range of 1 to 5 mg/kg.
With `Cc1nnn(CC(=O)[C@H]2CC[C@H]3[C@@H]4CC[C@H]5C[C@](C)(O)CC[C@]5(C)[C@H]4CC[C@]23C)n1` [Compound 206], the minimal effective dose in the assay on PTZ-treated mice was at most 1 mg/kg. Moreover, the Emax at 10 µM at α4β3δ GABAA receptors is over 500%.
